Laboratory results published in patent US20080182851A1, “ACETYLENE DERIVATIVES AS STEAROYL COA DESATURASE INHIBITORS” (Glenmark Pharmaceuticals S.A., priority 2006, published 2008).

Each compound was assayed against T1, human SCD1 enzyme (Homo sapiens, UniProt O00767) (assay: Tritiated water release assay (conversion of radiolabeled stearoyl-CoA to oleoyl-CoA)). Details: 10 μM concentration of test compounds; microsomal SCD1, 3H stearoyl CoA, 37° C. 30 minutes; percent of control reaction; read-out: % Inhibition.
T1 sequence (O00767 1-359): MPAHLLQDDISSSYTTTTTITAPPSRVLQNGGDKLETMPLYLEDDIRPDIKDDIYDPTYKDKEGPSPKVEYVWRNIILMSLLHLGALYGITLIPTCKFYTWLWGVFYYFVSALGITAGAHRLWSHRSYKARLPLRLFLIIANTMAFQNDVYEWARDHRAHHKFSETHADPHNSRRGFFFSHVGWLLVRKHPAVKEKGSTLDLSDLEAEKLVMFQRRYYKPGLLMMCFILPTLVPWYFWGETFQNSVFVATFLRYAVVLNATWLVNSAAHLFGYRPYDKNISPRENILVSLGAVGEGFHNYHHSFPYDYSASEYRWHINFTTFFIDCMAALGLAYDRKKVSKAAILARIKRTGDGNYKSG
Format: biochemical
Procedure: The in-vitro activity of the compounds of the present invention against stearoyl coenzyme desaturase was determined by following conversion of radiolabeled-stearoyl-CoA to oleoyl-CoA using human SCD1 enzyme using a previously published assay procedure with some modifications (Barbara R Talamo and Konrad Bloch, Analytical Biochemistry, 1969, 29, 300-304). This assay protocol is only illustrative and is not meant to limit to the scope of the present invention.
In this assay the microsomal SCD1 enzyme desaturates its substrate, Stearoyl CoA (purchased from American Radiochemicals Ltd.) which is tritiated at C9 and C10 positions. Test compounds were dissolved in dimethylsulfoxide and tested at 10 μM final concentration. Before substrate addition, the test compound or standard reference compound (conjugated linoleic acid at 100 μM final concentration) were pre-incubated in reaction buffer with the enzyme for 10 minutes at 30° C. with shaking. Reaction buffer was prepared as described in literature (Obukowicz et al. JPET, 1998, 287, 157-166) except that the MgCl2, ATP (purchased from Sigma) and CoA (purchased from Sigma) concentrations were changed to 4.9 mM, 7.2 mM and 0.54 mM respectively. The desaturation reaction was initiated by addition of 0.5 μCi of ^3H stearoyl CoA and incubated at 37° C. for 30 minutes with shaking. A control reaction was set without any test compound/reference inhibitor to capture maximum enzymatic activity in the assay. Inhibition of enzyme activity was calculated as a percent of this control reaction giving maximum catalysis and the results are given in Table 5.
Table 5: Tritiated water release assay at 10 μM substrate concentration *Conjugated Linoleic acid was used as a reference standard
For `O=C(c1ccccc1C(F)(F)F)N1CCN(c2ccc(C#Cc3cccc(CO)c3)cn2)CC1` [Example 33, 4-{5-[2-(3-Hydroxymethylphenyl)-1-ethynyl]-2-pyridyl}piperazino-2-trifluoromethyl-phenylmethanone], the inhibition at 10 µM was 20%. `CCOC(=O)c1cc(C#Cc2ccc(N3CCN(C(=O)c4ccccc4C(F)(F)F)CC3)nc2)ccc1OC(C)=O` [Example 34] was tested, and the inhibition at 10 µM was 29%. `O=C(O)c1cc(C#Cc2ccc(N3CCN(C(=O)c4ccccc4C(F)(F)F)CC3)nc2)ccc1O` [Example 35, 2-Hydroxy-5-(2-{6-[4-(2-trifluoromethylbenzoyl)piperazino]-3-pyridyl}-1-ethynyl)-benzoic acid] showed an inhibition at 10 µM of 36%. For `CC(=O)Nc1cccc(C#Cc2ccc(N3CCN(C(=O)c4ccccc4C(F)(F)F)CC3)nc2)c1` [Example 36, N1-[3-(2-{6-[4-(2-Trifluoromethylbenzoyl)piperazino]-3-pyridyl}-1-ethynyl)phenyl]acetamide], the inhibition at 10 µM was 23%. For `O=C(c1ccccc1C(F)(F)F)N1CCN(c2ccc(C#Cc3ccc(O)cc3)nn2)CC1` [Example 37], the inhibition at 10 µM was 89%. `O=C(c1ccccc1C(F)(F)F)N1CCN(c2ccc(C#Cc3cccc(O)c3)nn2)CC1` [Example 38, 4-{6-[2-(3-Hydroxyphenyl)-1-ethynyl]-3-pyridazinyl}piperazino-2-trifluoromethyl-phenylmethanone] was tested, and the inhibition at 10 µM was 99%. Compound `O=C(c1ccccc1C(F)(F)F)N1CCN(c2ccc(C#Cc3ccc(F)cc3)nn2)CC1` [Example 39] has an inhibition at 10 µM of 75%. Compound `O=C(c1ccccc1C(F)(F)F)N1CCN(c2ccc(C#Cc3ccc(F)c(F)c3)nn2)CC1` [Example 40, 4-{6-[2-(3,4-Difluorophenyl)-1-ethynyl]-3-pyridazinyl}piperazino-2(trifluoromethyl)-phenylmethanone] has an inhibition at 10 µM of 81%. In the case of `O=C(c1ccccc1C(F)(F)F)N1CCN(c2ccc(C#Cc3ccc(C(F)(F)F)cc3)nn2)CC1` [Example 41, 2-Trifluoromethylphenyl-4-{6-[2-(4-trifluoromethylphenyl)-1-ethynyl]-3-pyridazinyl}-piperazinomethanone], the inhibition at 10 µM is reported as 93%. `O=C(c1ccccc1C(F)(F)F)N1CCN(c2ncc(C#Cc3ccc(O)cc3)cn2)CC1` [Example 42, 4-{5-[2-(4-Hydroxyphenyl)-1-ethynyl]-2-pyrimidinyl}piperazino-2-trifluoromethyl-phenylmethanone] was tested, and the inhibition at 10 µM was 92%. For `O=C(c1ccccc1C(F)(F)F)N1CCN(c2ncc(C#Cc3cccc(O)c3)cn2)CC1` [Example 43], the inhibition at 10 µM was 98%. `CCOC(=O)c1ccc(C#Cc2ccc(N3CCN(C(=O)c4ccccc4C(F)(F)F)CC3)nc2)nc1` [Example 44] showed an inhibition at 10 µM of 37%. Compound `O=C(c1ccccc1C(F)(F)F)N1CCN(c2ccc(C#Cc3cnccn3)cn2)CC1` [Example 45] has an inhibition at 10 µM of 43%. Work on `O=C(c1cc(Cl)ccc1Cl)N1CCN(c2ccc(C#Cc3cnccn3)cn2)CC1` [Example 46] yielded an inhibition at 10 µM of 29%. `CCCCn1ccnc1C#Cc1ccc(N2CCN(C(=O)c3ccccc3C(F)(F)F)CC2)nc1` [Example 47, 4-{5-[2-(1-Butyl-1H-2-imidazolyl)-1-ethynyl]-2-pyridyl}piperazino-2-trifluoromethyl-phenylmethanone] gave an inhibition at 10 µM of 33%. Compound `CC(C)CCn1ccnc1C#Cc1ccc(N2CCN(C(=O)c3ccccc3C(F)(F)F)CC2)nc1` [Example 48] has an inhibition at 10 µM of 22%. `O=C(c1ccccc1C(F)(F)F)N1CCN(c2ccc(C#Cc3ccc4[nH]ccc4c3)cn2)CC1` [Example 49, 4-{5-[2-(1H-5-Indolyl)-1-ethynyl]-2-pyridyl}piperazino-2-trifluoromethylphenyl-methanone] showed an inhibition at 10 µM of 91%. `O=C(c1ccccc1C(F)(F)F)N1CCN(c2ncc(C#Cc3ccc4[nH]ccc4c3)cn2)CC1` [Example 50, 4-{5-[2-(1H-5-Indolyl)-1-ethynyl]-2-pyrimidinyl}piperazino-2-trifluoromethylphenyl-methanone] showed an inhibition at 10 µM of 66%. `O=C(c1ccccc1C(F)(F)F)N1CCN(c2ncc(C#Cc3ccc(N4CCCS4(=O)=O)cc3)cn2)CC1` [Example 51] showed an inhibition at 10 µM of 22%. Compound `O=C(c1ccccc1C(F)(F)F)N1CCN(c2ncc(C#Cc3ccc(-n4cccc4)cc3)cn2)CC1` [Example 52] has an inhibition at 10 µM of 39%. Compound `CC(=O)Oc1ccc(C#Cc2cnc(N3CCN(C(=O)c4ccccc4C(F)(F)F)CC3)s2)cc1` [Example 53, 4-(2-{2-[4-(2-Trifluoromethylbenzoyl)piperazino]-1,3-thiazol-5-yl}-1-ethynyl)phenyl acetate] has an inhibition at 10 µM of 47%. `N#Cc1cccc(C#Cc2ccc(N3CCN(C(=O)C4CCCC4)CC3)nn2)c1` [Example 54, 3-({6-[4-(Cyclopentylcarbonyl)piperazin-1-yl]pyridazin-3-yl}ethynyl)benzonitrile] gave an inhibition at 10 µM of 47%. Work on `Oc1cccc(C#Cc2ccc(N3CCN(CC4CC4)CC3)nn2)c1` [Example 55, 3-({6-[4-(Cyclopropylmethyl)piperazin-1-yl]pyridazin-3-yl}ethynyl)phenol] yielded an inhibition at 10 µM of 60%. `CC(=O)Oc1cccc(C#Cc2ccc(N3CCN(CC4CCCCC4)CC3)nn2)c1` [Example 56] showed an inhibition at 10 µM of 92%. With `Oc1cccc(C#Cc2ccc(N3CCN(CC4CCCCC4)CC3)nn2)c1` [Example 57, 3-({6-[4-(Cyclohexylmethyl)piperazin-1-yl]pyridazin-3-yl}ethynyl)phenol] the inhibition at 10 µM was 96%. In the case of `Fc1ccccc1CN1CCN(c2ccc(C#CC3CCCCO3)nn2)CC1` (stereo not drawn) [Example 58], the inhibition at 10 µM is reported as 6%. Compound `Oc1cccc(C#Cc2ccc(N3CCN(Cc4ccccc4F)CC3)nn2)c1` [Example 60, 3-({6-[4-(2-Fluorobenzyl)piperazin-1-yl]pyridazin-3-yl}ethynyl)phenol] has an inhibition at 10 µM of 95%. `CC(=O)Oc1ccc(C#Cc2ccc(N3CCC(O)(Cc4ccccc4)CC3)nn2)cc1` [Example 61, 4-{[6-(4-Benzyl-4-hydroxypiperidin-1-yl)pyridazin-3-yl]ethynyl}phenyl acetate] was tested, and the inhibition at 10 µM was 97%. In the case of `Oc1ccc(C#Cc2ccc(N3CCC(O)(Cc4ccccc4)CC3)nn2)cc1` [Example 62, 4-Benzyl-1-{6-[(4-hydroxyphenyl)ethynyl]pyridazin-3-yl}piperidin-4-ol], the inhibition at 10 µM is reported as 99%. `Oc1ccc(C#Cc2ccc(N3CCC(O)(Cc4ccccc4F)CC3)nn2)cc1` [Example 63, 4-(2-Fluorobenzyl)-1-{6-[(4-hydroxyphenyl)ethynyl]pyridazin-3-yl}piperidin-4-ol] was tested, and the inhibition at 10 µM was 94%. In the case of `CC(=O)Oc1ccc(C#Cc2ccc(N3CCC(O)(Cc4cc(Cl)ccc4Cl)CC3)nn2)cc1` [Example 64], the inhibition at 10 µM is reported as 87%. `Oc1ccc(C#Cc2ccc(N3CCC(O)(Cc4cc(Cl)ccc4Cl)CC3)nn2)cc1` [Example 65, 1-{6-[(4-Hydroxyphenyl)ethynyl]pyridazin-3-yl}-4-(2,5-dichlorobenzyl)piperidin-4-ol] gave an inhibition at 10 µM of 93%. For `CC(=O)Oc1ccc(C#Cc2ccc(N3CC(Oc4ccccc4F)C3)nn2)cc1` [Example 66], the inhibition at 10 µM was 94%. With `Oc1ccc(C#Cc2ccc(N3CC(Oc4ccccc4F)C3)nn2)cc1` [Example 67] the inhibition at 10 µM was 96%. In the case of `Fc1ccccc1OC1CCN(c2ccc(C#Cc3ccc4c(c3)OCO4)cn2)CC1` [Example 72], the inhibition at 10 µM is reported as 38%. Work on `Fc1ccccc1OC1CCN(c2ccc(C#Cc3cccnc3)cn2)CC1` [Example 73, 4-(2-Fluorophenoxy)-1-{5-[2-(3-pyridyl)-1-ethynyl]-2-pyridyl}piperidine] yielded an inhibition at 10 µM of 37%.
